From the NIST ThermoML archive (doi:10.1021/je500284p)

Conditions: 101.33 kPa, Liquid

NC=O [formamide]
Conditions	viscosity [mPa·s]
298.15 K	3.23
303.15 K	2.95
308.15 K	2.67
313.15 K	2.43
318.15 K	2.2
323.15 K	1.99
328.15 K	1.82
333.15 K	1.69
338.15 K	1.58
343.15 K	1.52
348.15 K	1.49
